# Data: patent US20140323721A1, “HETEROCYCLIC COMPOUNDS AND USES THEREOF” (INTELLIKINE, LLC, priority 2011, published 2014)
# System: MDA-MB-361
# Experiment: MDA-MB-361 proliferation
# Assay type: cell-based
# Details: Homo sapiens; in vitro IC50, MDA-MB-361 cells
# Procedure: The ability of one or more subject compounds to inhibit tumor cell line proliferation is determined according to standard procedures known in the art. For instance, an in vitro cellular proliferation assay can be performed to measure the metabolic activity of live cells. The assay is performed in a 96 well microtiter plate using Alamar Blue reduction. Human tumor cell lines are obtained from ATCC (e.g., MCF7, U-87 MG, MDA-MB-468, PC-3), grown to confluency in T75 flasks, trypsinized with 0.25% trypsin, washed one time with Tumor Cell Media (DMEM+10% FBS), and plated in 90 ul at 5,000 cells/well in Tumor Cell Media. A compound disclosed herein is diluted in Tumor Cell Media and added in a 10 ul volume. Plates are incubated for 72 hours at 37 C and 5% CO2. A volume of 10 uL of Alamar Blue reagent is added to each well and plates are incubated for 3 hours at 37 C and 5% CO2. Alamar Blue fluoresce is read at 560 Ex/590 Em, and IC50 values are calculated using GraphPad Prism 5.
# Cells comprising one or more mutations in PI3Kα, including but not limited to breast cancer cells (e.g., MDA-MB-361 and T47D), and cells comprising one or more mutations in PTEN including but not limited to prostate cancer cells (e.g., PC3), are typically grown in cell growth media such as DMEM supplemented with fetal bovine serum and/or antibiotics, and grown to confluency. Cells are then treated with various concentrations of test compound for about 2 hours and subsequently lysed in cell lysis buffer. Lysates are subjected to SDS-PAGE followed by Western blot analysis to detect downstream signaling markers, including but not limited to pAKT(S473), pAKT(T308), pS6, and p4E-BP1. Degree of proliferation (and proliferation inhibition) can also be measured for cells at various doses of compound of the present invention.
row,Structure (SMILES),IC50 [µM]
1,"Nc1nc2cc(-c3ccc4ncc(N5CCOCC5)nc4n3)ccc2o1 [Compound 2, 5-(3-morpholinopyrido[2,3-b]pyrazin-6-yl)benzo[d]oxazol-2-amine]",< 1
2,CCN1CCN(C2CN(c3cnc4ccc(-c5ccc6oc(N)nc6c5)nc4c3)C2)CC1 [Compound 75],< 1
3,Nc1nc2cc(-c3ccc4ncc(-c5cccnc5)cc4n3)ccc2o1 [Compound 16],> 10
4,C[C@H]1CN(C2CN(c3cnc4ccc(-c5ccc6oc(N)nc6c5)nc4n3)C2)CCN1 [Compound 10],< 10
5,Nc1nc2cc(-c3ccc4ncc(N5CC(N6CCN(C7CC7)CC6)C5)nc4n3)ccc2o1 [Compound 69],< 10
6,Cc1nccn1C1CN(c2cnc3ccc(-c4ccc5oc(N)nc5c4)nc3c2)C1 [Compound 63],< 10
7,C[C@@H](N)C(=O)N1CCN(c2cnc3ccc(-c4ccc5oc(N)nc5c4)nc3n2)CC1 [Compound 31],< 10
8,C[C@H](N)C(=O)N1CCN(c2cnc3ccc(-c4ccc5oc(N)nc5c4)nc3c2)CC1 [Compound 38],< 10
9,C[C@@H]1COCCN1C1CN(c2cnc3ccc(-c4ccc5oc(N)nc5c4)nc3c2)C1 [Compound 66],< 10
10,C[C@@H]1CN(c2cnc3ccc(-c4ccc5oc(N)nc5c4)nc3n2)CCN1 [Compound 27],< 10
11,CC1(C)CN(C2CN(c3cnc4ccc(-c5ccc6oc(N)nc6c5)nc4n3)C2)CCN1 [Compound 52],< 1
12,Nc1nc2cc(-c3ccc4ncc(N5CCC(O)CC5)nc4n3)ccc2o1 [Compound 45],< 1
13,CCOC(=O)N1CCN(c2cnc3ccc(-c4ccc5oc(N)nc5c4)nc3c2)CC1 [Compound 36],< 1
14,CC1(C)CN(C2CN(c3cnc4ccc(-c5ccc6oc(N)nc6c5)nc4c3)C2)CCN1 [Compound 58],< 1
15,Cc1nccn1C1CN(c2cnc3ccc(-c4ccc5oc(N)nc5c4)nc3n2)C1 [Compound 50],< 10
16,C[C@@H]1CN(C2CN(c3cnc4ccc(-c5ccc6oc(N)nc6c5)nc4n3)C2)CCN1 [Compound 12],< 10
17,NCC(=O)N1CCN(c2cnc3ccc(-c4ccc5oc(N)nc5c4)nc3c2)CC1 [Compound 37],< 10
18,CC(C)(N)C(=O)N1CCN(c2cnc3ccc(-c4ccc5oc(N)nc5c4)nc3n2)CC1 [Compound 40],< 10
19,CN1CCN(C2CN(c3cnc4ccc(-c5ccc6oc(N)nc6c5)nc4c3)C2)CC1 [Compound 74],< 1
20,CN1CCN(c2cnc3ccc(-c4ccc5oc(N)nc5c4)nc3c2)CC1 [Compound 24],< 10

row,Structure (SMILES),IC50 [µM]
1,Nc1nc2cc(-c3ccc4ncc(N5CCNC(=O)C5)nc4n3)ccc2o1 [Compound 29],< 1
2,Nc1nc2cc(-c3ccc4ncc(N5CCC(O)CC5)cc4n3)ccc2o1 [Compound 62],< 10
3,C[C@H]1CN(c2cnc3ccc(-c4ccc5oc(N)nc5c4)nc3c2)CCN1 [Compound 47],< 10
4,NCC(=O)N1CCN(c2cnc3ccc(-c4ccc5oc(N)nc5c4)nc3n2)CC1 [Compound 33],> 10
5,CS(=O)(=O)N1CCN(C2CN(c3cnc4ccc(-c5ccc6oc(N)nc6c5)nc4n3)C2)CC1 [Compound 8],< 10
6,C[C@@H]1CN(C2CN(c3cnc4ccc(-c5ccc6oc(N)nc6c5)nc4n3)C2)CCN1C [Compound 25],< 10
7,CC(C)N1CCN(c2cnc3ccc(-c4ccc5oc(N)nc5c4)nc3n2)CC1 [Compound 32],< 10
8,Nc1nc2cc(-c3ccc4ncc(N5CC(N6CCN(CCO)CC6)C5)cc4n3)ccc2o1 [Compound 65],< 1
9,C[C@H]1COCCN1C1CN(c2cnc3ccc(-c4ccc5oc(N)nc5c4)nc3n2)C1 [Compound 61],> 10
10,CC(C)N1CCN(c2cnc3ccc(-c4ccc5oc(N)nc5c4)nc3c2)CC1 [Compound 44],< 10
11,Nc1nc2cc(-c3ccc4ncc(N5CCN(C(=O)C6(N)CC6)CC5)nc4n3)ccc2o1 [Compound 41],< 10
12,Nc1nc2cc(-c3ccc4ncc(N5CCC(F)(F)CC5)nc4n3)ccc2o1 [Compound 13],< 10
13,C[C@@H]1CN(c2cnc3ccc(-c4ccc5oc(N)nc5c4)nc3c2)CCN1 [Compound 48],< 10
14,C[C@H]1CN(c2cnc3ccc(-c4ccc5oc(N)nc5c4)nc3n2)CCN1 [Compound 1],< 10
15,CN1CCN(c2cnc3ccc(-c4ccc5oc(N)nc5c4)nc3n2)CC1 [Compound 4],< 10
16,C[C@H]1COCCN1C1CN(c2cnc3ccc(-c4ccc5oc(N)nc5c4)nc3c2)C1 [Compound 68],< 10
17,C[C@H]1CN(C2CN(c3cnc4ccc(-c5ccc6oc(N)nc6c5)nc4c3)C2)CCN1C [Compound 55],< 1
18,CN1CCN(C2CN(c3cnc4ccc(-c5ccc6oc(N)nc6c5)nc4c3)C2)CC1=O [Compound 64],< 1
19,C[C@H]1COCCN1c1cnc2ccc(-c3ccc4oc(N)nc4c3)nc2n1 [Compound 15],< 1
20,Nc1nc2cc(-c3ccc4ncc(N5CC(N6CCN(CCO)CC6)C5)nc4n3)ccc2o1 [Compound 46],< 10

row,Structure (SMILES),IC50 [µM]
1,"CC(C)(N)C(=O)N1CCN(c2cnc3ccc(-c4ccc5oc(N)nc5c4)nc3c2)CC1 [Compound 43, 2-amino-1-(4-(6-(2-aminobenzo[d]oxazol-5-yl)-1,5-naphthyridin-3-yl)piperazin-1-yl)-2-methylpropan-1-one]",< 1
2,CN1CC2CN(c3cnc4ccc(-c5ccc6oc(N)nc6c5)nc4n3)CC2C1 (stereo not drawn) [Compound 78],< 10
3,Nc1nc2cc(-c3ccc4ncc(N5CC(N6CCNCC6)C5)nc4n3)ccc2o1 [Compound 34],> 10
4,CCOC(=O)N1CCN(c2cnc3ccc(-c4ccc5oc(N)nc5c4)nc3n2)CC1 [Compound 6],< 1
5,Nc1nc2cc(-c3ccc4ncc(N5CC(N6CCN(C7CC7)CC6)C5)cc4n3)ccc2o1 [Compound 70],< 10
6,C[C@@H](N)C(=O)N1CCN(c2cnc3ccc(-c4ccc5oc(N)nc5c4)nc3c2)CC1 [Compound 39],< 10
7,C[C@H]1CN(C2CN(c3cnc4ccc(-c5ccc6oc(N)nc6c5)nc4n3)C2)CCN1C [Compound 21],< 10
8,Nc1nc2cc(-c3ccc4ncc(N5CC(N6CCOCC6)C5)cc4n3)ccc2o1 [Compound 53],< 10
9,Nc1nc2cc(-c3ccc4ncc(N5CC(N6CCN(CC7CC7)CC6)C5)nc4n3)ccc2o1 [Compound 35],< 10
10,Nc1nc2cc(-c3ccc4ncc(N5CC(N6CCOCC6)C5)nc4n3)ccc2o1 [Compound 5],< 10
11,C[C@@H]1CN(C2CN(c3cnc4ccc(-c5ccc6oc(N)nc6c5)nc4c3)C2)CCN1C [Compound 57],< 1
12,"CC(C)N1CCN(C2CN(c3cnc4ccc(-c5ccc6oc(N)nc6c5)nc4c3)C2)CC1 [Compound 72, 5-(7-(3-(4-isopropylpiperazin-1-yl)azetidin-1-yl)-1,5-naphthyridin-2-yl)benzo[d]oxazol-2-amine]",< 1
13,CCOC(=O)N1CC=C(c2cnc3ccc(-c4ccc5oc(N)nc5c4)nc3n2)CC1 [Compound 9],< 1
14,Nc1nc2cc(-c3ccc4ncc(N5CCN(C(=O)C6(N)CC6)CC5)cc4n3)ccc2o1 [Compound 42],< 1
15,CN1CCN(C2CN(c3cnc4ccc(-c5ccc6oc(N)nc6c5)nc4n3)C2)CC1 [Compound 71],< 10
16,C[C@H]1CN(C2CN(c3cnc4ccc(-c5ccc6oc(N)nc6c5)nc4c3)C2)CCN1 [Compound 54],< 1
17,C[C@@H]1CN(C2CN(c3cnc4ccc(-c5ccc6oc(N)nc6c5)nc4c3)C2)CCN1 [Compound 56],< 1
18,Nc1nc2cc(-c3ccc4ncc(N5CCOCC5)cc4n3)ccc2o1 [Compound 22],< 10
19,Nc1nc2cc(-c3ccc4ncc(N5CC(N6CCN(CC7CC7)CC6)C5)cc4n3)ccc2o1 [Compound 60],< 1
20,C[C@@H]1COCCN1c1cnc2ccc(-c3ccc4oc(N)nc4c3)nc2n1 [Compound 14],< 1
